Here are results for four molecules from patent publication US12209135B2, “Anti-CD45 antibodies and conjugates thereof” (priority 2019, dated 2025).

For data set [1] the following is noted: Quintieri et al. 2005; cited from earlier work.
Data set [2] relates to REH-Luc ALL cells. Put plainly: REH-Luciferase ALL xenograft (CDX) model. The data set is classed as in vivo, immune deficient mice (NSG-SGM3, or NSG). The conditions noted are these: Table 23; 3 mg/kg QWx3. The procedure: (§1) A panel of models were evaluated to mimic untreated and refractory disease: AML patient derived xenograft (PDX) models (from treatment naïve and relapsed post allogeneic HCT patients; all FLT-3+NPM1+), ALL cells from an immortalized cell line (REH-Luc), and T-ALL patient-derived xenograft (PDX) model (from a patient progressing post DHAP chemotherapy).
(§2) AML #1 was derived from a treatment naïve patient (J000106134) and AML #2 was derived from a heavily pre-treated relapsed refectory patient post allogenic HSCT (J000106132), The T-ALL was derived from a patient progressing post DHAP chemotherapy. The cell line-derived ALL was transduced to express firefly luciferase. Cells of each tumor type were systemically inoculated into immune deficient mice (NSG-SGM3, or NSG).
(§3) Treatment began when peripheral tumor burden of PDX (n=3-5/group), and CDX mice reached 2-16% blast in the peripheral blood or day 5 post implant for the REH-luc model (n=10/group).
Bioluminescence signal was measured using the IVIS imaging system (PerkinElmer). Radiance (mean±SEM) was captured over a time course of the study. Representative bioluminescence signal pseudo colored images were captured on day 22-23 post-implantation for all treatment groups, as shown in FIG. 29C.

The subject of data set [3] is T-ALL PDX. Put plainly: T-ALL patient-derived xenograft (PDX) model. The data set is classed as in vivo, immune deficient mice (NSG-SGM3, or NSG). The conditions noted are these: for Median Survival (Days Post Implant): Table 24. On the procedure: as §1, §2, §3
(In general: In xenograft studies the graft and the host belong to different species.)

Data set [4] concerns AML #1 PDX. Put plainly: AML patient derived xenograft model AML #1 (treatment naïve). The data set is classed as in vivo, immune deficient mice (NSG-SGM3, or NSG). The conditions noted are these: Table 25; 30 mg/kg QDx5. The procedure:
as §1, §2, §3
(§4) In the AML patient derived xenograft (PDX) models from treatment naïve and relapsed post allogeneic […] patients, treatment began when 2-16% blasts were detected in the periphery (n=3-5 mice/group/AML PDX model). Mice were treated with a single intravenous dose of anti-human CD45-ADC (AbA-AM), isotype-ADC, or vehicle (PBS). Ara-c was administered intravenously once daily for five consecutive days.

Data set [5] concerns AML #2 PDX. Put plainly: AML patient derived xenograft model AML #2 (relapsed refractory post allogeneic HSCT). The conditions noted are these: Table 26; 30 mg/kg QDx5. The data set is classed as in vivo, immune deficient mice (NSG-SGM3, or NSG). On the procedure: as §1, §2, §3, §4

Marks after values point to notes of the source that are not given here.

On to `COc1cccc2c1C(=O)c1c(O)c3c(c(O)c1C2=O)C[C@@](O)(C(=O)CO)C[C@@H]3O[C@H]1CC2[C@H](O[C@@H]3[C@@H](OC)OCCN23)[C@H](C)O1` (stereo partly shown) [PNU-159682], for which, in data set [1], the “cytotoxicity relative to the parent nemorubicin” value is “greater than 3000 fold”.

`COc1cccc2c1C(=O)c1c(O)c3c(c(O)c1C2=O)C[C@@](O)(C(=O)CO)C[C@@H]3O[C@H]1C[C@H](N)[C@H](O)[C@H](C)O1` [Doxorubicin, doxorubicin]: the “Median Survival (Days Post Implant)” value in data set [2] is given as 50^† Days.

Take `C[C@@H]1C[C@H]2[C@@H]3CCC4=CC(=O)C=C[C@]4(C)[C@@]3(F)[C@@H](O)C[C@]2(C)[C@@]1(O)C(=O)CO` [Dexamethasone, dexamethasone]: the “Median Survival (Days Post Implant)” value in data set [3] (5 mg/kg Q3Dx9) is 47*^‡ Days. For the same molecule, in data set [3] (text b933, AbA-AM1 single injection 3, or 6 mg/kg on day 5, n=5 mice/group), the median survival stood at 47 days. On to `Nc1ccn([C@@H]2O[C@H](CO)[C@@H](O)[C@@H]2O)c(=O)n1` [Ara-C], for which the “Median Survival (Days Post Implant)” value in data set [3] (30 mg/kg QDx5) is 77*^† Days; in data set [4] it was 97^† Days; in data set [5] it was 60^†‡ Days.
